{
  "source": "patent US11390617B2",
  "about": "“Methods of treating non-Hodgkin lymphoma using 2-(2,6-dioxopiperidin-3-yl)-4-((2-fluoro-4-((3-morpholinoazetidin-1-yl)methyl)benzyl)amino)isoindoline-1,3-dione” (Celgene Corporation, priority 2019, dated 2022)",
  "assay_in_all_cases": "NHL cell line viability/apoptosis 384-well flow cytometry assay",
  "type_in_all_cases": "cell-based",
  "key": {"[1]": {"test_system": "RIVA", "conditions": "RIVA (DLBCL), 120 hours", "summary_of_the_method": "(§1)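 Serial dilutions from 0.00015 to 10 μM, or DMSO at 0.1% (v/v), are added and cells incubated 120 hours. Annexin V and DRAQ7 staining then separates viable from apoptotic cells. Nonlinear regression of normalized curves yields IC50, Emax, EC50, Ymax and AUC.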"}, "[2]": {"test_system": "SU-DHL-8", "conditions": "SU-DHL-8 (DLBCL), 120 hours", "summary_of_the_method": "as §1"}, "[3]": {"test_system": "RL", "conditions": "RL (FL), 120 hours", "summary_of_the_method": "as §1"}, "[4]": {"test_system": "OCI-LY10", "conditions": "OCI-LY10 (DLBCL), 120 hours", "summary_of_the_method": "as §1"}, "[5]": {"test_system": "CARNAVAL", "conditions": "CARNAVAL (DLBCL), 120 hours", "summary_of_the_method": "as §1"}, "[6]": {"test_system": "Rec-1", "conditions": "Rec-1 (MCL), 120 hours", "summary_of_the_method": "as §1"}, "[7]": {"test_system": "Farage", "conditions": "Farage (DLBCL), 120 hours", "summary_of_the_method": "as §1"}, "[8]": {"test_system": "SU-DHL-1", "conditions": "SU-DHL-1 (DLBCL), 120 hours", "summary_of_the_method": "as §1"}, "[9]": {"test_system": "WILL-1", "conditions": "WILL-1 (DLBCL), 120 hours", "summary_of_the_method": "as §1"}, "[10]": {"conditions": "read-out: IC50 (% Viable Cells)"}, "[11]": {"conditions": "Homo sapiens, read-out: IC50 (% Viable Cells)"}},
  "data": [
    {"smiles": "O=C1CC[C@H](N2C(=O)c3cccc(NCc4ccc(CN5CC(N6CCOCC6)C5)cc4F)c3C2=O)C(=O)N1", "note": "[Compound 1, (S)-2-(2,6-dioxopiperidin-3-yl)-4-((2-fluoro-4-((3-morpholinoazetidin-1-yl)methyl)benzyl)amino)isoindoline-1,3-dione]", "values": [
      {"measurement": "AUC (% Viable Cells)", "setting": "[1]", "result": 452.6},
      {"measurement": "AUC (Apoptosis)", "setting": "[1]", "result": 242.8},
      {"measurement": "EC50", "setting": "[1]", "result": 17.7, "unit": "nM"},
      {"measurement": "Emax (% Viable Cells)", "setting": "[1]", "result": 36.65, "unit": "%"},
      {"measurement": "Ymax (Apoptosis)", "setting": "[1]", "result": 27.92, "unit": "%"},
      {"measurement": "IC50", "setting": "[1]; [10]", "result": 114, "unit": "nM"},
      {"measurement": "EC50", "setting": "[2]; Homo sapiens", "result": 602, "unit": "nM"},
      {"measurement": "IC50", "setting": "[2]; [11]", "result": 486, "unit": "nM"},
      {"measurement": "AUC (% Viable Cells)", "setting": "[2]", "result": 119.5},
      {"measurement": "AUC (Apoptosis)", "setting": "[2]", "result": 363.2},
      {"measurement": "Emax (% Viable Cells)", "setting": "[2]", "result": 2.081, "unit": "%"},
      {"measurement": "Ymax (Apoptosis)", "setting": "[2]", "result": 85.44, "unit": "%"},
      {"measurement": "EC50", "setting": "[3]; Homo sapiens", "result": 157, "unit": "nM"},
      {"measurement": "IC50", "setting": "[3]; [11]", "result": 8.76, "unit": "nM"},
      {"measurement": "AUC (% Viable Cells)", "setting": "[3]", "result": 234.8},
      {"measurement": "AUC (Apoptosis)", "setting": "[3]", "result": 115.9},
      {"measurement": "Emax (% Viable Cells)", "setting": "[3]", "result": 21.55, "unit": "%"},
      {"measurement": "Ymax (Apoptosis)", "setting": "[3]", "result": 13.93, "unit": "%"},
      {"measurement": "EC50", "setting": "[4]; Homo sapiens", "result": 320, "unit": "nM"},
      {"measurement": "IC50", "setting": "[4]; [11]", "result": 14.2, "unit": "nM"},
      {"measurement": "AUC (% Viable Cells)", "setting": "[4]", "result": 125.3},
      {"measurement": "AUC (Apoptosis)", "setting": "[4]", "result": 188.9},
      {"measurement": "Emax (% Viable Cells)", "setting": "[4]", "result": 10.16, "unit": "%"},
      {"measurement": "Ymax (Apoptosis)", "setting": "[4]", "result": 22.31, "unit": "%"},
      {"measurement": "AUC (% Viable Cells)", "setting": "[5]", "result": 110.6},
      {"measurement": "AUC (Apoptosis)", "setting": "[5]", "result": 708.7},
      {"measurement": "EC50", "setting": "[5]", "result": 152, "unit": "nM"},
      {"measurement": "Emax (% Viable Cells)", "setting": "[5]", "result": 7.134, "unit": "%"},
      {"measurement": "Ymax (Apoptosis)", "setting": "[5]", "result": 77.84, "unit": "%"},
      {"measurement": "IC50", "setting": "[5]; [10]", "result": 9.12, "unit": "nM"},
      {"measurement": "EC50", "setting": "[6]; Homo sapiens, Rec1", "result": 9.26, "unit": "nM"},
      {"measurement": "IC50", "setting": "[6]; Homo sapiens, Rec1, read-out: IC50 (% Viable Cells)", "result": 32, "unit": "nM"},
      {"measurement": "AUC (% Viable Cells)", "setting": "[6]", "result": 281.8},
      {"measurement": "AUC (Apoptosis)", "setting": "[6]", "result": 508.5},
      {"measurement": "Emax (% Viable Cells)", "setting": "[6]", "result": 21.04, "unit": "%"},
      {"measurement": "Ymax (Apoptosis)", "setting": "[6]", "result": 57.27, "unit": "%"},
      {"measurement": "AUC (% Viable Cells)", "setting": "[7]", "result": 10.16},
      {"measurement": "AUC (Apoptosis)", "setting": "[7]", "result": 728.7},
      {"measurement": "EC50", "setting": "[7]", "result": 30.2, "unit": "nM"},
      {"measurement": "Emax (% Viable Cells)", "setting": "[7]", "result": 0.7936, "unit": "%"},
      {"measurement": "Ymax (Apoptosis)", "setting": "[7]", "result": 84.17, "unit": "%"},
      {"measurement": "IC50", "setting": "[7]; [10]", "result": 2.38, "unit": "nM"},
      {"measurement": "EC50", "setting": "[8]; Homo sapiens", "result": 1.1, "unit": "nM"},
      {"measurement": "IC50", "setting": "[8]; [11]", "result": 0.549, "unit": "nM"},
      {"measurement": "AUC (% Viable Cells)", "setting": "[8]", "result": 31.14},
      {"measurement": "AUC (Apoptosis)", "setting": "[8]", "result": 690.1},
      {"measurement": "Emax (% Viable Cells)", "setting": "[8]", "result": 2.485, "unit": "%"},
      {"measurement": "Ymax (Apoptosis)", "setting": "[8]", "result": 73.83, "unit": "%"},
      {"measurement": "AUC (% Viable Cells)", "setting": "[9]", "result": 233.7},
      {"measurement": "AUC (Apoptosis)", "setting": "[9]", "result": 549.4},
      {"measurement": "EC50", "setting": "[9]", "result": 2520, "unit": "nM"},
      {"measurement": "Emax (% Viable Cells)", "setting": "[9]", "result": 4.216, "unit": "%"},
      {"measurement": "Ymax (Apoptosis)", "setting": "[9]", "result": 79.51, "unit": "%"},
      {"measurement": "IC50", "setting": "[9]; [10]", "result": 817, "unit": "nM"}
    ]}
  ]
}
